Like-named read-outs stand apart in the source and are kept apart here.
How the values were obtained:
[1] = system: E. coli infected rats (experimental abscess); experiment: In vivo biodistribution of ex vivo labelled human leucocytes in E. coli infected rats; parameters: species or system male Wistar rats; details: ex vivo labelled human leucocytes injected i.v.
Experimental: (§1) The model: into the right gracilis (thigh) muscle of male Wistar rats (250-325 g) were injected 1 ml/kg of an E. coli suspension containing >> 5×10^8/ml organisms.
(§2) Validation: the model was validated for use in the development of diagnostic imaging agents of infection/inflammation by the intravenous injection of ^99mTc-HMPAO ex-vivo labelled human wbc or ^67Ga-citrate when the abscesses were 24 hours old. Animals were dissected between 4 and 24 hours after injection. ^99mTc-labelled red blood cells were used as a negative control.
Screening of Ex vivo labelled human leucocytes in E. coli infected rats: A mixed population of human leucocytes was incubated with elastase inhibitor for 30 minutes at 37° C. The cells were then spun down and resuspended in a known volume of rat plasma for intravenous injection into rats bearing a 24 hour old abscess. Animals were dissected at 4 and 24 hours post injection.

[2] = system: E. coli infected rats (experimental abscess); experiment: In vivo biodistribution in rats bearing experimental abscesses, direct intravenous injection; parameters: species or system male Wistar rats; details: for uptake in the infected region compared with the ^99mTc-rbc control: ^123I-labelled, rat model of inflammation/infection; for Relative conc. In infected area / Infected/normal / Infected/blood: directly injected i.v.; for Relative conc. In infected area: % injected dose in a % body weight; for Infected/normal: ratio of % id/g infected area to contralateral thigh; for Infected/blood: ratio of %/g infected area to blood
Experimental: as §1, §2
The animals were sacrificed at either 4 or 24 hours post injection and relevant tissues dissected.

[3] = In vivo stability of iodinated HLE inhibitors (thyroid uptake); parameters: species or system male Wistar rats; details: i.v. injection
Experimental: The in vivo stability of radioiodinated HLE inhibitors was monitored by determination of the percentage uptake in the thyroid as a function of time after administration. Thus radioiodinated compounds and ^123I free iodide were injected into male Wistar rats. The percentage of injected dose distributing to the thyroid was calculated by dissection at 4 and 24 hours post injection and counting.

[4] = system: isolated human white cells (granulocytes; monocytes + lymphocytes); experiment: In vitro cell uptake in isolated human white cells; assay type: cell-based; details: for selectivity for granulocytes over a mixture of monocytes/lymphocytes: approximately equivalent numbers of monocytes/lymphocytes and granulocytes present; for % uptake in Gran. (granulocytes), WHITE CELLS / % uptake in Mon. (monocytes + lymphocytes), WHITE CELLS: isolated human white cells, 30 minutes at 37° C., radiolabelled compound
Experimental: Fresh blood (30-120 ml) was anticoagulated with 1.5% ACD solution and sedimented by addition of 2 ml Hespan per 10 ml blood for 90 minutes at room temperature. The leucocyte rich platelet rich plasma supernatant was removed and centrifuged at 150 g for 5 minutes, yielding a leucocyte rich pellet and platelet rich plasma (PRP). The PRP was centrifuged at 4000 g to pellet the platelets leaving a cell free plasma (CFP). The leucocyte pellet was resuspended in a 50:50 mixture of HBSS and CFP and incubated with the radioactive compound for 30 minutes at 37° C. Free radioactive material was then removed from the cells by addition of an excess of HBSS:CFP and centrifugation of the leucocytes at 150 g for 7 minutes. The supernatant and cell pellet were taken for radioactive counting for calculation of percentage cell uptake. The distribution of radioactivity within the cell pellet was assessed by separation of the cell types using Percoll density gradient centrifugation (38%, 55% and 73% Percoll in HBSS step gradients). The residual plasma and free activity was recovered from the top of the gradient, the mononuclear cells (lymphocytes and monocytes) from the interface between 38% and 55%, and the granulocytes were recovered from the interface between 55% and 73% Percoll.

[5] = biological target: T1, HLE (human leucocyte elastase) (Homo sapiens, UniProt P08246); experiment: Measurement of HLE inhibition potency (kinact/Ki); assay type: biochemical; parameters: Potency (M/sec), kinact/Ki: unit not given here
T1 sequence (P08246 30-267): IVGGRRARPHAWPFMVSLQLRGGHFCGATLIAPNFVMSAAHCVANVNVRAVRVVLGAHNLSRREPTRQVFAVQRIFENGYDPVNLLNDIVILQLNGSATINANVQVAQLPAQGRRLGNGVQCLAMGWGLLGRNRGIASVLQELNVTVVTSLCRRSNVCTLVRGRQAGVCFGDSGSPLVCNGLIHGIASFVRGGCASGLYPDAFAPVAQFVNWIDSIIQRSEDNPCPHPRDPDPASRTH
Experimental: Inhibitor potency against HLE is described by the parameter kinact/Ki as previously reported [Knight et al., Biochem., 8160-8170, (1992)]. Lyophilised enzyme was reconstituted with TrisHCl buffer, 100 mM, 0.5M NaCl at 0.05 units/ml (approximately nanomolar concentration) in a final reaction volume of 1 ml to which was added methoxysucc-ala-ala-pro-val-pNA substrate (1 mM) and the elastase inhibitor dissolved in DMSO. The reaction was monitored by detecting the change of absorbance at 410 nm (hydrolysis of the substrate releasing p-nitroaniline) over a timescale of 25 minutes. Values of kinact/Ki were estimated according to the Knight et al method.

[6] = system: human whole blood (granulocytes, monocytes + lymphocytes, erythrocytes); experiment: In vitro cell uptake in human whole blood; assay type: cell-based; details: 37° C. for 1 hour, radiolabelled compound
Experimental: The radioactive compound was added to 1 ml whole blood anticoagulated with ACD and incubated at 37° C. for 1 hour. The blood was diluted with HBSS and the cellular component separated by centrifugation. Distribution of activity within the cellular pellet was assessed by separation of cell fractions on Ficoll-Hypaque gradients as above.

[7] = system: mixed human red/white cells (granulocytes, monocytes + lymphocytes, erythrocytes); experiment: In vitro cell uptake in mixed human red/white cells; assay type: cell-based; details: radiolabelled compound
Experimental: The radioactive compound was also incubated with an isolated leucocyte preparation to which an erythrocyte fraction had been added back. The packed erythrocytes obtained after blood sedimentation were washed twice with HBSS and then resuspended in their original blood volume with HBSS. Leucocytes obtained from 30 ml blood were resuspended in 0.5 ml erythrocyte suspension and 0.5 ml CFP. The cell suspension was then incubated with compound as above. Analysis of the distribution of activity in the cell pellet in the presence of red blood cells was carried out using Ficoll-Hypaque discontinuous density gradients (densities 1.04, 1.077 and 1.119 g/ml Histopaque steps).

[8] = system: E. coli infected rats (experimental abscess); experiment: In vivo biodistribution in rats bearing experimental abscesses, direct intravenous injection; parameters: species or system male Wistar rats; details: 48 hrs
[9] = measured for non-radioactive iodine-labelled compounds and unlabelled chelate conjugates, read-out: Potency (M/sec), kinact/Ki
[10] = as listed in Table 24 beside the radiolabelled compounds
[11] = measured for non-radioactive iodine-labelled compounds and unlabelled chelate conjugates

CCC1(CC)C(=O)N(C(=O)NCc2ccc(I)cc2)C1Oc1ccc(C(=O)N2CCN(C)CC2)cc1 (racemic) [Compound 4, 4-[4-[[(4-Methyl)piperazin-1-yl]carbonyl]phenoxy]-1-[(4-iodo)benzylaminocarbonyl]-3,3-diethyl-2-azetidinone]
Infected/blood ([1]; 4 hrs post injection): 0.61
Infected/normal ([1]; 4 hrs post injection): 1.5
Infected/blood ([1]; 24 hrs post injection): 0.75
Infected/normal ([1]; 24 hrs post injection): 1.9
uptake in the infected region compared with the ^99mTc-rbc control [2]: significantly better uptake in the infected region
Relative conc. In infected area ([2]; 4 hrs post injection): 0.51
Infected/normal ([2]; 4 hrs post injection): 1.3
Infected/blood ([2]; 4 hrs post injection): 0.62
Relative conc. In infected area ([2]; 24 hrs post injection): 0.12
Infected/normal ([2]; 24 hrs post injection): 1.3
Infected/blood ([2]; 24 hrs post injection): 0.51
% dose in Thyroid ([3]; 4 hours): 0.1 % dose
% dose in Thyroid ([3]; 24 hours): 0.9 % dose
selectivity for granulocytes over a mixture of monocytes/lymphocytes [4]: some degree of selectivity for granulocytes
% uptake in Gran. (granulocytes), WHITE CELLS [4]: 25.7%
% uptake in Mon. (monocytes + lymphocytes), WHITE CELLS [4]: 2.0%
kinact/KI ([5]; as listed in Table 24 beside the radiolabelled compounds, read-out: kinact/Ki (human elastase)): 32000 M⁻¹ s⁻¹
kinact/KI [5, 9]: 32000 M⁻¹ s⁻¹
% uptake in Eryth. (erythrocytes), WHOLE BLOOD [6]: 6.5%
% uptake in Gran. (granulocytes), WHOLE BLOOD [6]: 5.0%
% uptake in Mon. (monocytes + lymphocytes), WHOLE BLOOD [6]: 3.9%
% uptake in Eryth. (erythrocytes), WHITE AND RED CELLS [7]: 14.2%
% uptake in Gran. (granulocytes), WHITE AND RED CELLS [7]: 14.4%
% uptake in Mon. (monocytes + lymphocytes), WHITE AND RED CELLS [7]: 3.4%

CCC1(CC)C(=O)N(C(=O)NCc2ccc(I)cc2)C1Oc1ccc(C(=O)N2CCN(C)CC2)cc1 (single isomer, unassigned) [Compound 4a]
uptake in the infected region compared with the ^99mTc-rbc control [2]: significantly better uptake in the infected region
Relative conc. In infected area ([2]; 4 hrs post injection): 0.52
Infected/normal ([2]; 4 hrs post injection): 1.0
Infected/blood ([2]; 4 hrs post injection): 0.62
Relative conc. In infected area ([2]; 24 hrs post injection): 0.28
Infected/normal ([2]; 24 hrs post injection): 1.6
Infected/blood ([2]; 24 hrs post injection): 0.53
% dose in Thyroid ([3]; 4 hours): 0.1 % dose
% dose in Thyroid ([3]; 24 hours): 0.3 % dose
selectivity for granulocytes over a mixture of monocytes/lymphocytes [4]: some degree of selectivity for granulocytes
% uptake in Gran. (granulocytes), WHITE CELLS [4]: 68.6%
% uptake in Mon. (monocytes + lymphocytes), WHITE CELLS [4]: 14.3%
kinact/Ki (human elastase) [5, 10]: 36000
Potency (M/sec), kinact/Ki [5, 11]: 63,000
% uptake in Eryth. (erythrocytes), WHITE AND RED CELLS [7]: 8.4%
% uptake in Gran. (granulocytes), WHITE AND RED CELLS [7]: 53.2%
% uptake in Mon. (monocytes + lymphocytes), WHITE AND RED CELLS [7]: 14.6%

CCC1(CC)C(=O)N(C(=O)NCCc2ccc(O)c(I)c2)C1S(=O)(=O)CCOC (stereo not drawn) [Compound 16, 4-[2-Methoxyethylsulfonyl]-1-[(4-hydroxy)(3-iodo)phenylethylaminocarbonyl]-3,3-diethyl-2-azetidinone]
% dose in Thyroid ([3]; 4 hours): 0.3 % dose
% dose in Thyroid ([3]; 24 hours): 2.4 % dose
selectivity for granulocytes over a mixture of monocytes/lymphocytes [4]: some degree of selectivity for granulocytes
% uptake in Gran. (granulocytes), WHITE CELLS [4]: 0.55%
% uptake in Mon. (monocytes + lymphocytes), WHITE CELLS [4]: 0.0%
kinact/KI [5, 9]: 2700 M⁻¹ s⁻¹
% uptake in Eryth. (erythrocytes), WHOLE BLOOD [6]: 0.2%
% uptake in Gran. (granulocytes), WHOLE BLOOD [6]: 0.2%
% uptake in Mon. (monocytes + lymphocytes), WHOLE BLOOD [6]: 0.6%
% uptake in Eryth. (erythrocytes), WHITE AND RED CELLS [7]: 0.6%
% uptake in Gran. (granulocytes), WHITE AND RED CELLS [7]: 0.3%
% uptake in Mon. (monocytes + lymphocytes), WHITE AND RED CELLS [7]: 0.6%

CCC[C@@H](NC(=O)N1C(=O)C(CC)(CC)[C@@H]1Oc1ccc(C(=O)N2CCN(C)CC2)cc1)c1ccc(I)cc1 [Compound 24, 4S-[4-[[(4-methyl)piperazin-1-yl]carbonyl]phenoxy]-1-[(R-α-n-propyl)-(4-iodo)benzylaminocarbonyl]-3,3-diethyl-2-azetidinone]
Infected/blood ([1]; 4 hrs post injection): 0.9
Infected/normal ([1]; 4 hrs post injection): 1.3
Relative conc. In infected area ([1]; 4 hrs post injection): 0.53
Infected/blood ([1]; 24 hrs post injection): 0.9
Infected/normal ([1]; 24 hrs post injection): 1.3
Relative conc. In infected area ([1]; 24 hrs post injection): 0.20
Relative conc. In infected area ([2]; 4 hrs post injection): 0.38
Infected/normal ([2]; 4 hrs post injection): 1.3
Infected/blood ([2]; 4 hrs post injection): 1.3
Relative conc. In infected area ([2]; 24 hrs post injection): 0.16
Infected/normal ([2]; 24 hrs post injection): 1.1
Infected/blood ([2]; 24 hrs post injection): 0.9
% dose in Thyroid ([3]; 4 hours): 0.2 % dose
% dose in Thyroid ([3]; 24 hours): 0.6 % dose
selectivity for granulocytes over a mixture of monocytes/lymphocytes [4]: some degree of selectivity for granulocytes
% uptake in Gran. (granulocytes), WHITE CELLS [4]: 83.2%
% uptake in Mon. (monocytes + lymphocytes), WHITE CELLS [4]: 3.4%
kinact/Ki (human elastase) [5, 10]: 2830000
Potency (1/(M·s)), kinact/Ki [5, 11]: 2.83e+06 M⁻¹ s⁻¹
% uptake in Eryth. (erythrocytes), WHOLE BLOOD [6]: 16.6%
% uptake in Gran. (granulocytes), WHOLE BLOOD [6]: 24.3%
% uptake in Mon. (monocytes + lymphocytes), WHOLE BLOOD [6]: 13.6%
% uptake in Eryth. (erythrocytes), WHITE AND RED CELLS [7]: 41.7%
% uptake in Gran. (granulocytes), WHITE AND RED CELLS [7]: 40.4%
% uptake in Mon. (monocytes + lymphocytes), WHITE AND RED CELLS [7]: 4.0%

O=C([O-])CC(O)(CC(=O)[O-])C(=O)[O-].[67Ga+3] [^67Ga-citrate, ^67Ga citrate, reference compound]
Infected/blood [8]: 9.7
Infected/normal [8]: 3.9
Relative conc. In infected area [8]: 1.1
Relative conc. In infected area ([2]; 24 hrs post injection): 0.9
Infected/normal ([2]; 24 hrs post injection): 2.2
Infected/blood ([2]; 24 hrs post injection): 3.9

Reference: patent US6375926B1, “Labelled elastase inhibitors” (Amersham International PLC, priority 1996, dated 2002)
